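Where inhibition never reached the appropriate level, the endpoint shown equals the highest concentration tested. Otherwise, values were interpolated linearly from a five-concentration, 48-hour dose response in 96-well plates. At the GI50, growth is halved. Definition used: TGI = concentration required for complete inhibition of growth.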
How the values were obtained:
Assay in all cases: NCI-60 cell line screen, 48 h
MALME-3M melanoma = tested on: MALME-3M melanoma
K-562 leukemia = tested on: K-562 leukemia
NCI-H522 lung = tested on: NCI-H522 lung
HOP-92 NSCLC = tested on: HOP-92 NSCLC
A549 NSCLC = tested on: A549 NSCLC
OVCAR-8 ovarian = tested on: OVCAR-8 ovarian
U251 CNS = tested on: U251 CNS
COLO 205 colon = tested on: COLO 205 colon
A498 renal = tested on: A498 renal
MDA-MB-435 = tested on: MDA-MB-435

Structure (SMILES) | TGI (MALME-3M melanoma) [µM] | TGI (K-562 leukemia) [µM] | TGI (NCI-H522 lung) [µM] | TGI (HOP-92 NSCLC) [µM] | TGI (A549 NSCLC) [µM] | TGI (OVCAR-8 ovarian) [µM] | TGI (U251 CNS) [µM] | TGI (COLO 205 colon) [µM] | TGI (A498 renal) [µM] | GI50 (MALME-3M melanoma) [µM] | GI50 (A498 renal) [µM] | GI50 (K-562 leukemia) [µM] | GI50 (NCI-H522 lung) [µM] | GI50 (A549 NSCLC) [µM] | GI50 (MDA-MB-435) [µM] | TGI (MDA-MB-435) [µM] | GI50 (OVCAR-8 ovarian) [µM] | GI50 (U251 CNS) [µM] | GI50 (COLO 205 colon) [µM] | GI50 (HOP-92 NSCLC) [µM]
COc1ccc(NC(=O)CC(=O)N/N=C/c2ccc(N(CCC#N)S(=O)(=O)c3ccccc3)cc2)cc1 | > 100 | > 100 | > 100 | > 100 | > 100 | > 100 | > 100 | > 100 | – | – | – | – | – | – | – | – | – | – | – | –
COc1ccc(C(=O)C(C(=O)C(=O)Nc2nccs2)c2ccc(OC)cc2)cc1 (stereo not drawn) | > 100 | > 100 | > 100 | > 100 | > 100 | > 100 | > 100 | > 100 | > 100 | – | – | – | – | – | – | – | – | – | – | –
CCN(CC)CCOc1ccc2c(c1)C(=O)c1cc(OCCN(CC)CC)ccc1-2 | 33.6 | 11.2 | 27.5 | – | 32.9 | 54 | 31.3 | 9.38 | 37.5 | 15.6 | 16.5 | 3.1 | 12.4 | 6.4 | 12.9 | 27.7 | 8 | 8.73 | 2.56 | –
COc1cc2c([C@@H](OC(=O)c3ccccc3)c3ccc4c(c3)OCO4)nccc2c(OC)c1OC | > 100 | > 100 | > 100 | > 100 | > 100 | > 100 | > 100 | > 100 | > 100 | – | – | – | – | – | – | – | – | – | – | –
CCCCN(CCCC)C(=O)C(=O)C(C)C(=O)CC (stereo not drawn) | > 100 | > 100 | > 100 | > 100 | > 100 | > 100 | > 100 | > 100 | – | – | – | – | – | – | – | – | – | – | – | –
Cc1cccc(C)c1NC(=O)CCC(=O)NC(N)=S | > 100 | > 100 | > 100 | > 100 | > 100 | > 100 | > 100 | > 100 | > 100 | – | – | – | – | – | – | – | – | – | – | –
Cc1[nH]nc2c1C(=O)C=C(N(CCO)c1ccccc1)C2=O | > 100 | > 100 | > 100 | > 100 | > 100 | > 100 | > 100 | > 100 | – | – | – | – | – | – | – | – | – | – | – | –
COc1ccc2c(c1)cn1c3ccc(O)cc3[nH]c(=O)c21 | – | – | 1.24 | 18.2 | 1.82 | 2.82 | 1.9 | 2.83 | 20.7 | – | 0.377 | – | 0.0442 | 0.301 | 0.0252 | 0.171 | 0.428 | 0.143 | 0.409 | 2.53
CCCCCCNc1nc(N2CCOCC2)c2[nH]c(NCCCCCC)nc2n1 | – | – | 3.37 | – | 3.38 | 3.74 | 3.18 | 3.6 | 2.31 | – | 1.11 | – | 1.58 | 1.69 | – | – | 1.77 | 1.61 | 1.89 | –
N#CC(C(=N/NC(N)=S)/C(=N/NC(N)=S)C(C#N)c1ccc(Cl)cc1)c1ccc(Cl)cc1 (stereo not drawn) | > 100 | > 100 | > 100 | > 100 | > 100 | > 100 | > 100 | > 100 | > 100 | – | – | – | – | – | – | – | – | – | – | –
CCc1cccc(C(C)CC)c1NC(=O)C(=O)C(CC(=O)Nc1ccc(Cl)c(Cl)c1)C(=O)OC (stereo not drawn) | > 100 | > 100 | > 100 | > 100 | > 100 | > 100 | > 100 | > 100 | > 100 | – | – | – | – | – | – | – | – | – | – | –
Cc1nc2cc(Nc3nc(Nc4ccc(F)cc4)nc(N4CCN(C)CC4)n3)ccc2n1Cc1ccccc1 | – | 5.29 | 3.21 | – | 3.15 | 5.49 | 2.64 | 3.62 | 3.19 | – | 1.56 | 1.34 | 1.6 | 1.51 | 1.87 | 3.56 | 2.02 | 1.35 | 1.94 | –
Cc1nc(Nc2ccccc2)sc1C(=O)NNc1ccc([N+](=O)[O-])cc1[N+](=O)[O-] | > 100 | 60.1 | 49.3 | – | > 100 | > 100 | > 100 | > 100 | – | – | – | – | – | – | – | – | – | – | – | –
N#C/C(N)=C(\C#N)N=Cc1csc2ccccc12 | > 100 | > 100 | > 100 | > 100 | > 100 | 55.7 | 45.3 | > 100 | – | 50.9 | – | 95.5 | 28.9 | 45.4 | 36.2 | > 100 | 20.8 | 20.2 | 72.3 | 24.1
Nc1ccc2ccc(NS(=O)(=O)N3CCCCC3)cc2c1 | > 100 | > 100 | 0.76 | 73.1 | > 46 | > 100 | > 42 | 1.65 | 0.872 | 0.489 | 0.176 | 0.354 | 0.205 | 1 | – | – | 1.63 | 0.392 | 0.369 | 0.532
[C-]#[N+][C@]12C(=O)[C@H](CCC1(C)C)C(C)(C)[C@H]1C(=O)N(C)c3cccc2c31 | – | > 100 | – | > 100 | > 100 | > 100 | > 100 | > 100 | 74.2 | – | 0.81 | 4.8 | – | 5.42 | 24.7 | > 100 | 13.8 | 7.08 | 5.06 | 3.11
O=C(Nc1ccccc1O)c1ccc(CNC(=O)c2sccc2Nc2ccnc(C(F)(F)F)c2)cc1 | 21.5 | 62.5 | 27.7 | – | 28.2 | 41.2 | 20.8 | 19.2 | 9.7 | 2.5 | 2.62 | 5.72 | 5.06 | 8.68 | 4.09 | 17.8 | 3.44 | 5.44 | 5.38 | –

— PubChem BioAssay (NCI)
